Our source for the Ki values is patent US6069143A, “Fibrinogen receptor antagonists” (SmithKline Beecham Corporation, priority 1996, dated 2000).

Structures are written as SMILES.

The assay concerns the target T1, fibrinogen receptor (GPIIb-IIIa) (Homo sapiens, UniProt P05106+P08514).
T1 construct: Ten units of outdated, washed human platelets (obtained from Red Cross) were lyzed; from tissue; host or cells: outdated human platelets (Red Cross); GPIIb-IIIa purified on lentil lectin sepharose and incorporated in liposomes
Put plainly: Competitive binding to GPIIb-IIIa ([3H]-SK&F-107260 displacement, GPIIb-IIIa liposomes). To be noted: purified human platelet GPIIb-IIIa in liposomes; 4.5 nM [3H]-SK&F-107260; Ki from IC50 by Cheng and Prusoff equation; read-out: Ki, inhibition of [3H]-SK&F 107260 binding. The method, then:
Ten units of outdated, washed human platelets (obtained from Red Cross) were lyzed by gentle stirring in 3% octylglucoside, 20 mM Tris-HCl, pH 7.4, 140 mM NaCl, 2 mM CaCl2 at 4° C. for 2 h. The lysate was centrifuged at 100,000 g for 1 h. The supernatant obtained was applied to a 5 mL lentil lectin sepharose 4B column (E.Y. Labs) preequilibrated with 20 mM Tris-HCl, pH 7.4, 100 mM NaCl, 2 mM CaCl2, 1% octylglucoside (buffer A). After 2 h incubation, the column was washed with 50 mL cold buffer A. The lectin-retained GPIIb-IIIa was eluted with buffer A containing 10% dextrose. All procedures were performed at 4° C. The GPIIb-IIIa obtained was >95% pure as shown by SDS polyacrylamide gel electrophoresis. […]
The binding to the fibrinogen receptor (GPIIb-IIIa) was assayed by an indirect competitive binding method using [^3 H]-SK&F-107260 as an RGD-type ligand. […] Bound radioactivity remaining on the filters was counted in 1.5 mL Ready Solve (Beckman Instruments, Fullerton, Calif.) in a Beckman Liquid Scintillation Counter (Model LS6800), with 40% efficiency. Nonspecific binding was determined in the presence of 2 μg unlabeled SK&F-107260 and was consistently less than 0.14% of the total radioactivity added to the samples. […]
Competition binding data were analyzed by a nonlinear least-squares curve fitting procedure. […]

T1 sequence (P08514 32-887 limits assumed): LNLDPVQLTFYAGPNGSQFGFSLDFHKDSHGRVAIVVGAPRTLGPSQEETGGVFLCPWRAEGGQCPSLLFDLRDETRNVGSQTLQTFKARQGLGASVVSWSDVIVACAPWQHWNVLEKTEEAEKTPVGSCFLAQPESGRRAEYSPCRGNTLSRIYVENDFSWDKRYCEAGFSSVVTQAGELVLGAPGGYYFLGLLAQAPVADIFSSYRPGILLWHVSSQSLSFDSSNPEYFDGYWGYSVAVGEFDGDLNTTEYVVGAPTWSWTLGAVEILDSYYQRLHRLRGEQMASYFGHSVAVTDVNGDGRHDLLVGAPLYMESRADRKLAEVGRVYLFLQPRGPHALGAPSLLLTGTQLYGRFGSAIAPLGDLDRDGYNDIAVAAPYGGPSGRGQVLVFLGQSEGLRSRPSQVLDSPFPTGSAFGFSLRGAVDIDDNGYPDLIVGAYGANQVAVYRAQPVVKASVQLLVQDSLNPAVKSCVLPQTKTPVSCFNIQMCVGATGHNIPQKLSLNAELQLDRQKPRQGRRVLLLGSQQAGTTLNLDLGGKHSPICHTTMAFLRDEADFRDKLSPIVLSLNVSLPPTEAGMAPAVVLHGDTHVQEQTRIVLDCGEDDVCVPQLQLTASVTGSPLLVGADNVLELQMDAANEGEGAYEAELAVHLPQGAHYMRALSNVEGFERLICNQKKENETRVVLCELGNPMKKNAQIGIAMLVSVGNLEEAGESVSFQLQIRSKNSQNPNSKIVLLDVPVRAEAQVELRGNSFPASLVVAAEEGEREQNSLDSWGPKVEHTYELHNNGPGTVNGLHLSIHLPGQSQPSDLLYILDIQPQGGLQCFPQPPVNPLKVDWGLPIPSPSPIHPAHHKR
T1 sequence (P08514 891-1039 limits assumed): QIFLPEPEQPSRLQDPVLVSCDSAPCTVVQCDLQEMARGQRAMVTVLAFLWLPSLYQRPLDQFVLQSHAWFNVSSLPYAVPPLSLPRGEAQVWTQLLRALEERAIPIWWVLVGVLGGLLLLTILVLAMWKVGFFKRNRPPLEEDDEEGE
T1 sequence (P05106 27-788): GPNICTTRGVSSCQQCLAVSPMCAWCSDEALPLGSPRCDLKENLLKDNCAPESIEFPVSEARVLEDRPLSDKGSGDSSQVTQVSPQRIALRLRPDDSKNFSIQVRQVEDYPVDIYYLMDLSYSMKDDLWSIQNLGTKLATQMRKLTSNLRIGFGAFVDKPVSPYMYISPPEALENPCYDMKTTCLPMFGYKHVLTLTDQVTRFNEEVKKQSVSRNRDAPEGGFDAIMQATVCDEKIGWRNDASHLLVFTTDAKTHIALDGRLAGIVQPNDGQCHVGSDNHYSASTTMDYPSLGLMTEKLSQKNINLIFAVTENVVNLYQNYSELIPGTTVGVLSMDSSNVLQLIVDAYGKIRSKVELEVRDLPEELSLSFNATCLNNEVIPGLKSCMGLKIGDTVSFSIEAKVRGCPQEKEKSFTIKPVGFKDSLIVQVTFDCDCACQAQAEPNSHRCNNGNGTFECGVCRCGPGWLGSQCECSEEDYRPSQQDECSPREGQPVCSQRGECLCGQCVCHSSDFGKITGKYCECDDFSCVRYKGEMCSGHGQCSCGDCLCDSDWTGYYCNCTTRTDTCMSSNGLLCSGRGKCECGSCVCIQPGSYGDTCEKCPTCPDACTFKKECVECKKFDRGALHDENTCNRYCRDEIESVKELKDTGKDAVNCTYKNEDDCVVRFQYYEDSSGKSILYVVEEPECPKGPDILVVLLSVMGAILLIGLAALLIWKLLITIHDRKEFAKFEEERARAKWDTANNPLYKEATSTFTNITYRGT

With `O=C(O)CN1CCC(C(=O)Nc2ccc(N3CCNCC3)cc2)CC1` [Example 1, 4-[[[4-(1-piperazinyl)phenyl]amino]carbonyl]-1-piperidineacetic acid], the inhibitory constant (Ki) is approximately 5 nM.
